Measurements reported in patent publication US12678453B2, “Aerosolized formulations of HIV protease inhibitors for the treatment of airway reflux” (The Medical College of Wisconsin, Inc., priority 2020, dated 2026).

Legend:
porcine pepsin A = target: T1, porcine pepsin A (Sus scrofa, UniProt P00791); assay: co-crystallization of inhibitors with pepsin; format: binding; conditions: crystal structures of porcine pepsin complexes
T1 construct: purchased Worthington Biochemical Corporation
Procedure: Lyophilized porcine pepsin A (Worthington Biochemical Corporation) was dissolved in water at 200 mg/mL. All ligand stock solutions, except for saquinavir mesylate, were prepared as saturated solutions in DMSO in order to dissolve the maximal amount of ligand. The solutions were centrifuged and an appropriate volume of the supernatant was added to the pepsin solution so that final mixture contained 1.6% of the ligand stock by volume. The mixtures were incubated at room temperature for 1 h, centrifuged for 10 min at 31,000 rcf, and the supernatant was used for crystallization experiments. […] In order to maximize the solubility of saquinavir in the crystallization solution, we tested solutions from the CryoSol screen (Molecular Dimensions) (PMID 28626721). Mixture SM2 consisting of 37.5% v/v dioxane, 25% v/v DMSO, 12.5% v/v ethylene glycol, 12.5% v/v 1,2-propanediol, and 12.5% v/v glycerol allowed us to increase the amount of ligand solution in the co-crystallization mixture without damaging the protein. The saturated solution of saquinavir in SM2 was treated in the same manner as solutions of other ligands except that its amount in the solution with pepsin was increased to 5% by volume.
The initial crystallization condition was identified by screening 200 mg/mL ligand-free porcine pepsin against the Salt RX screen (Hampton Research). Small bipyramid-shaped crystals were obtained in 3.5 M ammonium chloride and 0.1 M sodium acetate trihydrate pH 4.6 after 1 week of incubation at room temperature. […] Diffraction quality crystals formed after 2-7 days from hanging drops containing 2 μL of pepsin at concentrations of 180-210 mg/mL and 1 μL of a microseed solution serially diluted 10-100× above a well solution containing 3 M-4 M ammonium chloride and 0.1 M sodium acetate trihydrate pH 4.6. The crystals were shaped as triangular bi-pyramids with dimensions approximately 200×100×100 μm. Crystals were cryoprotected by soaking them in 30% w/v glucose, 5 M ammonium chloride and 0.1 M sodium acetate trihydrate pH 4.6 and then plunging them in liquid nitrogen.
The complex with saquinavir was crystallized in the same manner except that we used 0.1 M acetic acid instead of 0.1 M sodium acetate trihydrate pH 4.6 because this change allowed us to grow large crystals without the need for a microseeding solution. Cryoprotection was accomplished using 30% w/v glucose, 3 M ammonium chloride and 0.1 M acetic acid, followed by plunging in liquid nitrogen.
Pepsin·APV: A 1.9 Å diffraction data set was collected at the Life Sciences Collaborative Access Team beamline (LS-CAT) 21-ID-F at the Advanced Photon Source (APS) equipped with a MAR 300 CCD detector using a 50×50 μm beam at a wavelength of 0.97872 Å. […]

[1] = known clinical profile; cited from earlier work

T1 sequence (P00791 60-385): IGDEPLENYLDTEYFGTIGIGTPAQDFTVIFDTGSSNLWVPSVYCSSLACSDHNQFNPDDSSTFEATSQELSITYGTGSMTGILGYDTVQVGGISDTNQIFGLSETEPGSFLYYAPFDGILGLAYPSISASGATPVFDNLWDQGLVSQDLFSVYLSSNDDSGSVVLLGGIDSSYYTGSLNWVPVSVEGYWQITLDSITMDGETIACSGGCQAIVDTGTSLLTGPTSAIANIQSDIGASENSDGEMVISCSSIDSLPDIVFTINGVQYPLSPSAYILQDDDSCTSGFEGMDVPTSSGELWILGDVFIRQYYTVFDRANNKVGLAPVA

Structure (SMILES)	binding at the active site of pepsin by co-crystallization (porcine pepsin A)	side effects / tolerability [1]
CC(C)CN(C[C@@H](O)[C@H](Cc1ccccc1)NC(=O)O[C@H]1CO[C@H]2OCC[C@H]21)S(=O)(=O)c1ccc(N)cc1 [darunavir, [(3a S,4R,6aR)-2,3,3a,4,5,6a-hexahydrofuro[2,3-b]furan-4-yl] N-[(2S,3R)-4-[(4-aminophenyl)sulfonyl-(2-methylpropyl)amino]-3-hydroxy-1-phenylbutan-2-yl]carbamate]	bind at the active site of pepsin	–
CC(C)(C)NC(=O)[C@@H]1C[C@@H]2CCCC[C@@H]2CN1C[C@@H](O)[C@H](Cc1ccccc1)NC(=O)[C@H](CC(N)=O)NC(=O)c1ccc2ccccc2n1 [saquinavir, (2S)—N-[(2S,3R)-4-[(3 S,4aS,8aS)-3-(tert-butylcarbamoyl)-3,4,4a,5,6,7,8,8a-octahydro-1H-isoquinolin-2-yl]-3-hydroxy-1-phenylbutan-2-yl]-2-(quinoline-2-carbonylamino)butanediamide]	bind at the active site of pepsin	can cause QT prolongation, heart block, high blood lipids, and liver problems
CC(C)c1nc(CN(C)C(=O)N[C@H](C(=O)N[C@@H](Cc2ccccc2)C[C@H](O)[C@H](Cc2ccccc2)NC(=O)OCc2cncs2)C(C)C)cs1 [ritonavir, 1,3-thiazol-5-ylmethyl N-[(2S,3 S,5S)-3-hydroxy-5-[[(2S)-3-methyl-2-[[methyl-[(2-propan-2-yl-1,3-thiazol-4-yl)methyl]carbamoyl]amino]butanoyl]amino]-1,6-diphenylhexan-2-yl]carbamate]	bind at the active site of pepsin	minimal side effects such as diarrhea, nausea and vomiting
CC(C)CN(C[C@@H](O)[C@H](Cc1ccccc1)NC(=O)O[C@H]1CCOC1)S(=O)(=O)c1ccc(N)cc1 [amprenavir, [(3S)-oxolan-3-yl] N-[(2S,3R)-4-[(4-aminophenyl)sulfonyl-(2-methylpropyl)amino]-3-hydroxy-1-phenylbutan-2-yl]carbamate]	bind in the pepsin active site	minimal side effects such as diarrhea, nausea and vomiting
